Measured values taken from patent publication US20250129033A1, “METAP2 INHIBITORS AND USES THEREOF” (Yissum Research Development Company of the Hebrew …, priority 2022, published 2025).

Assays:
A375 cells = assay: A375 proliferation assay (MTT); assay type: cell-based, human; conditions: 1-100 μM, 72 h, dose-dependent
Procedure: Human Umbilical Vein Endothelial Cells (HUVECs) or human melanoma cell line (A375) were used to validate the ability of the compound to suppress endothelial cell proliferation. Each 1500 A375 cells/well or 2000 HUVEC cells/well were seeded in a 96 wells plate and allowed to adhere to the plate for few hours. Compounds were then added to the cells at concentration range of 0.05-10 μM (<0.1% DMSO). Cells were then incubated for additional 72 hours and MTT was done (2 to 3 h at 37° C.). The dye was solubilized with DMSO and the absorbance was determined at 570 nm.
A375 were seeded (2000 cells/well) exposed to TNP-470 and to arrange concentrations of AD-3281 (1-100 μM) cells were incubated for 72 h at 37° C., After incubation, MTT (Sigma Aldrich, St. Louis City, MO, USA) was added (0.5 mg/mL) into each well for viability detection and incubated at 37° C. and 5% CO2 for 40 minutes. The absorbance was measured at 540 nm using a plate reader (Wallac 1420 VICTOR plate reader, Perkin-Elmer Life Sciences, USA). The proliferation of HUVECs was measured under the same conditions. HUVECs were seeded (3000 cells/well) in 96-well plates […]

[1] = system: Choroidal Neovascularization (CNV); assay: Laser-induced CNV in mice; assay type: in vivo, C57Bl/6J mice; conditions: 12 μg per eye, intravitreal, 7 days
Description: Laser-induced CNV was generated by a previously described technique with some modifications. C57Bl/6J mice (6-8 weeks) were anesthetized by intraperitoneal injections of a mixture of 85% ketamine and 15% xylazine. A mixture of 0.5% tropicamide and 0.5% phenylephrine hydrochloride was applied to both eyes to dilate the pupils. Lesions were induced by a diode pumped solid state laser (0.1 s; spot size, 100 μm; power 120 mW) around the optic nerve through a slit lamp delivery system using a Nidek while a hand-held cover slide was used as a contact lens. Only lesions in which a subretinal bubble or focal serous detachment of the retina developed were used for the experiments. For this purpose, 4 burns were performed per eye while leaving a space around the optic disc. Intravitreal injections of the treatments were performed using a PLI-100 Pico-Injector following the laser procedure. After 7 days mice were euthanized and their eyes were removed and fixed in 4% paraformaldehyde for 60 min. The cornea and lens were removed, and the entire retina was carefully dissected from the eyecup Choroid.
Blood vessels were labeled using a 1:200 dilution of isolectin IB4 conjugated with Alexa Fluor 488 or lectin-FITC. The eyecup was flat-mounted in an aqua-mount with the sclera facing down and the choroid facing up. […] The CNV area (presented in μm2) in choroidal flat mount was evaluated using ImageJ software […]

ERG study in mice = assay type: in vivo; conditions: Low dose 12 μg per eye and High dose 48 μg per eye

In the case of COC1C(OC(=O)CC23CC4CC(CC(C4)C2)C3)CCC2(CO2)C1C1(C)OC1CC=C(C)C (stereo not drawn) [AD-3281, Fumagillol-1-adamantylacetate], the “reduction in A375 cancer cell proliferation” value (A375 cells) is reported as 37-63%, the “effect on mouse laser induced CNV” value [1] is reported as 46% and the “damage to vision (ERG)” value (ERG study in mice) is reported as “no damage to vision”.
